According to ChEMBL document CHEMBL1136110, “2,3,4,5-tetrahydro- and 2,3,4,5,11,11a-hexahydro-1H-[1,4]diazepino[1,7-a]indoles: new templates for 5-HT(2C) agonists” (Bioorg Med Chem Lett, 2003):

Key:
[1] = target: T1, 5-hydroxytryptamine receptor 2C (Homo sapiens, UniProt P28335); experiment: Binding affinity of compound towards 5-hydroxytryptamine 2C receptor
T1 sequence (P28335 whole entry): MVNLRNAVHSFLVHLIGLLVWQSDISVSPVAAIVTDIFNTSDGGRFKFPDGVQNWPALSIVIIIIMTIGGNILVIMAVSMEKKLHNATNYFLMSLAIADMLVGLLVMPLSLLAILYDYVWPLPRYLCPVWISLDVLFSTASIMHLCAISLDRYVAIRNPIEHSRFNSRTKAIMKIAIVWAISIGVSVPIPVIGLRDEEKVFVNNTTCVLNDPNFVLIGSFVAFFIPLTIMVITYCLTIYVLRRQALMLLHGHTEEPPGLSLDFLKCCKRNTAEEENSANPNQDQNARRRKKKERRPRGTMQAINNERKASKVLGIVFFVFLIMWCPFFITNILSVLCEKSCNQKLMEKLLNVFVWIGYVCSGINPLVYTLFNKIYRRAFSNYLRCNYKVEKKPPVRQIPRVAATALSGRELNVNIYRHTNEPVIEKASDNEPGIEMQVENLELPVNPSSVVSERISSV

[2] = target: T1, 5-hydroxytryptamine receptor 2C; experiment: Binding affinity against 5-hydroxytryptamine 2C receptor using [125I]DOI radioligand.
[3] = target: 5-hydroxytryptamine receptor 2A (Homo sapiens, UniProt P28223); experiment: Binding affinity against 5-hydroxytryptamine 2A receptor using [125I]DOI radioligand.
[4] = target: T2, 5-hydroxytryptamine receptor 2C (Homo sapiens) (UniProt P28335); experiment: Intrinsic efficacy against 5-hydroxytryptamine 2C receptor
T2 sequence (whole entry): T1 sequence (P28335 whole entry)

[5] = target: Serotonin 2 receptors; 5-HT2a & 5-HT2c (Homo sapiens) (UniProt P28223+P28335); experiment: Selectivity ratio of binding affinity of 5-hydroxytryptamine 2A receptor to that of 5-hydroxytryptamine 2C receptor.; assay type: protein assay
Mus musculus [6] = experiment: Ataxia (time on rotaing rod) in mice after administration (3 mg/kg) using standard Rotarod assay; assay type: functional
Mus musculus [7] = experiment: Ataxia (time on rotaing rod) in mice after administration (0.3 mg/kg) using standard Rotarod assay; assay type: functional
Mus musculus [8] = experiment: Anxiolytic activity (latency to fight) in mice after administration (0.3 mg/kg) using shock-induced aggression assay; assay type: functional
Mus musculus [9] = experiment: Anxiolytic activity (latency to fight) in mice after administration (3.0 mg/kg) using shock-induced aggression assay; assay type: functional
Mus musculus [10] = experiment: Anxiolytic activity (latency to fight) in mice after administration (30 mg/kg) using shock-induced aggression assay; assay type: functional
Mus musculus [11] = experiment: Anxiolytic activity (latency to fight) in mice after administration (3 mg/kg) using shock-induced aggression assay; assay type: functional
Mus musculus [12] = experiment: Ataxia (time on rotaing rod) in mice after administration (30 mg/kg) using standard Rotarod assay; assay type: functional

Serotonin 2 receptors; 5-HT2a & 5-HT2c (Homo sapiens), sequence (P28223 whole entry, looked up, one chain of several): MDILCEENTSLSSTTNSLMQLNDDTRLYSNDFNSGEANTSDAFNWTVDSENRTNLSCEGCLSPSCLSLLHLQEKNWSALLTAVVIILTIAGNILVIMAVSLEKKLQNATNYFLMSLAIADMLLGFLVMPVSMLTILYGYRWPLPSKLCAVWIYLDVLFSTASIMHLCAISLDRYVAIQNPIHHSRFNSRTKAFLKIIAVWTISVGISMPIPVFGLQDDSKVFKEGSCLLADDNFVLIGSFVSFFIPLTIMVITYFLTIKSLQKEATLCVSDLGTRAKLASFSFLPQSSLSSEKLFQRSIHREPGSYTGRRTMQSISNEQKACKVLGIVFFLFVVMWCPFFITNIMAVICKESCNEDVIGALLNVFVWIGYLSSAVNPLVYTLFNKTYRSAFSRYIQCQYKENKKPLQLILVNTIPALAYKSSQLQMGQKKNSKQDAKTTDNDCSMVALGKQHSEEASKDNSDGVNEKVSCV
5-hydroxytryptamine receptor 2A, sequence (P28223 whole entry): as the sequence (P28223 whole entry, looked up, one chain of several) above

SMILES	Ki [2] [nM]	Ki [3] [nM]	Selectivity ratio [5]	further results
C[C@H](N)Cn1ccc2ccc(F)cc21	–	–	–	Ki [1]: 4 nM
c1ccc2c3c([nH]c2c1)CCNCC3	6.1	10	–	Intrinsic efficacy [4]: 66%
Cc1ccccc1-c1cccc2c1N1CCNCCC1C2 (stereo in doubt; (+)) [listing 1 of 2 here]	30	191	–	–
FC(F)(F)c1ccccc1-c1cccc2c1N1CCNCCC1C2 (single isomer, unassigned; (-)) [listing 1 of 2 here]	14	45	–	–
Cn1c2c(c3ccccc31)CCNCC2 [PNU-22394]	19	19	–	Intrinsic efficacy [4]: 83%
Clc1ccc(-c2cc(Cl)cc3c2N2CCNCCC2C3)c(Cl)c1 (configuration not stated)	386	426	1.1	–
CCOc1ccccc1-c1ccc2c(c1)CC1CCNCCN21 (configuration not stated)	4810	> 10000	–	–
O=Cc1c2n(c3ccccc13)CCNCC2	12	29	2.4	–
CCN1CCc2cc3ccccc3n2CC1	38	30	–	Intrinsic efficacy [4]: 66%
FC(F)(F)c1ccccc1-c1cccc2c1N1CCNCCC1C2 (single isomer, unassigned; (+)) [listing 1 of 2 here]	59	107	–	–
NC(=O)C(=O)c1c2n(c3ccccc13)CCNCC2	136	316	2.3	–
FC(F)(F)c1ccccc1-c1cccc2c1N1CCNCCC1C2 (single isomer, unassigned; (+)) [listing 2 of 2 here]	–	–	1.81	–
COc1ccc(Cl)cc1-c1cc(Cl)cc2c1N1CCNCCC1C2 (configuration not stated)	793	756	0.95	–
Fc1ccccc1-c1cc(Cl)cc2c1N1CCNCCC1C2 (configuration not stated)	223	141	0.63	–
Cc1c2n(c3ccccc13)CCNCC2	6.8	12	1.8	–
CCOc1ccccc1-c1cc(Cl)cc2c1N1CCNCCC1C2 (stereo in doubt) [listing 1 of 2 here]	178	354	–	–
CCOc1ccccc1-c1cccc2c1N1CCNCCC1C2 (single isomer, unassigned; (-)) [listing 1 of 2 here]	–	–	5	–
O=C(c1c2n(c3ccccc13)CCNCC2)C(F)(F)F	54	40	0.7	–
Cc1ccccc1-c1cc(Cl)cc2c1N1CCNCCC1C2 (configuration not stated)	43	88	2.05	–
CCCN1CCc2cc3ccccc3n2CC1	64	56	–	–
CCOc1ccccc1-c1cc(Cl)cc2c1N1CCNCCC1C2 (stereo in doubt) [listing 2 of 2 here]	–	–	1.99	–
CCOc1cccc(-c2cc(Cl)cc3c2N2CCNCCC2C3)c1 (configuration not stated)	472	233	0.49	–
CCOc1ccccc1-c1cccc2c1N1CCNCCC1C2 (single isomer, unassigned; (-)) [listing 2 of 2 here]	196	980	–	–
c1cc2c3c(c1)c1c(n3CCO2)CCNCC1	4.3	4.1	–	Intrinsic efficacy [4]: 105%

SMILES	Ki [2] [nM]	Ki [3] [nM]	Selectivity ratio [5]	further results
FC(F)(F)c1ccccc1-c1cccc2c1N1CCNCCC1C2 (single isomer, unassigned; (-)) [listing 2 of 2 here]	–	–	3.21	–
CCOc1ccc(-c2cc(Cl)cc3c2N2CCNCCC2C3)cc1 (configuration not stated)	265	182	0.69	–
Clc1ccc(Cl)c(-c2cc(Cl)cc3c2N2CCNCCC2C3)c1 (configuration not stated)	160	70	0.44	–
Clc1c2n(c3ccccc13)CCNCC2	4.7	6.5	1.4	–
CCOc1ccccc1-c1cc(Cl)cc2cc3n(c12)CCNCC3	112	32	–	–
Cc1nnc2n1-c1ccc(Cl)cc1C(c1ccccc1)=NC2 [ALPRAZOLAM]	–	–	–	Latency (Mus musculus [6]): 14.5 s; Latency (Mus musculus [7]): 74.2 s; Latency (Mus musculus [8]): 11.9 s; Latency (Mus musculus [9]): 35.2 s
CCOc1ccccc1-c1cccc2c1N1CCNCCC1C2 (single isomer, unassigned; (+)) [listing 1 of 2 here]	103	458	–	–
Cc1ccccc1-c1cccc2c1N1CCNCCC1C2 (stereo in doubt; (+)) [listing 2 of 2 here]	–	–	6.37	–
Cc1ccccc1-c1cccc2c1N1CCNCCC1C2 (stereo in doubt; (-)) [listing 1 of 2 here]	–	–	3.45	–
Fc1ccc(-c2cc(Cl)cc3c2N2CCNCCC2C3)cc1 (configuration not stated)	310	146	0.47	–
NC(=O)c1c2n(c3ccccc13)CCNCC2	74	46	0.6	–
Cc1ccccc1-c1cccc2c1N1CCNCCC1C2 (stereo in doubt; (-)) [listing 2 of 2 here]	39	136	–	–
c1ccc2c(c1)cc1n2CCNCC1	4.8	18	3.8	Latency (Mus musculus [10]): 27 s; Latency (Mus musculus [11]): 12.8 s; Intrinsic efficacy [4]: 80%; Latency (Mus musculus [6]): 102 s; Latency (Mus musculus [12]): 87.6 s
N#Cc1c2n(c3ccccc13)CCNCC2	85	83	1	–
CCOc1ccccc1-c1cccc2c1N1CCNCCC1C2 (single isomer, unassigned; (+)) [listing 2 of 2 here]	–	–	4.45	–
CN1CCc2cc3ccccc3n2CC1	13	28	–	Intrinsic efficacy [4]: 49%
CCOc1ccccc1-c1cc(Cl)cc2c1N1CCNCCC1C2 (single isomer, unassigned; (+)) [listing 1 of 2 here]	32	116	–	–
c1ccc2c(c1)CC1CCNCCN21 (configuration not stated)	721	805	–	–
CCOc1ccccc1-c1cc(Cl)cc2c1N1CCNCCC1C2 (stereo in doubt; 22a)	54	218	–	–
CCOc1ccccc1-c1cc(Cl)cc2c1N1CCNCCC1C2 (single isomer, unassigned; (+)) [listing 2 of 2 here]	–	–	3.63	–
Clc1cc2c(c(-c3ccccc3Cl)c1)N1CCNCCC1C2 (configuration not stated)	57	102	1.79	–
CCOc1ccccc1-c1ccc2c(c1)N1CCNCCC1C2 (configuration not stated)	932	1580	–	–
Clc1ccccc1-c1cccc2c1N1CCNCCC1C2 (configuration not stated)	23	82	3.57	–
CCOc1ccccc1-c1cccc2c1N1CCNCCC1C2 (stereo in doubt; 20a)	110	440	–	–
